Experimental data: patent publication US20090042726A1, “Novel Herbicides” (SYNGENTA LIMITED, priority 2005, published 2009)

Test system: Monocotyledonous and dicotyledonous test plants
Experiment: Herbicidal action, application pre-emergence (Example B1)
Assay type: in vivo
Set-up: key: 10=total damage to plant; 0=no damage to plant
Conditions: 1000 g/ha, evaluated after 9 or 13 days; for AGSTE herbicidal action (damage score 0-10): Agrostis-tenius; for AMARE herbicidal action (damage score 0-10): Amaranthus retroflexus; for DIGSA herbicidal action (damage score 0-10): Digitaria sanguinalis; for POATR herbicidal action (damage score 0-10): Poa trivialis; for SETIT herbicidal action (damage score 0-10): Setaria italica
Method: Monocotyledonous and dicotyledonous test plants were sown in sterilised standard soil in seed trays each having 96 cells. After one day (pre-emergence) under controlled conditions in a climatic chamber (cultivation at 23/17° C., day/night; 13 hours light; 50-60% humidity; after application at 24/19° C., day/night), the plants were treated with an aqueous spray solution of 1000 mg/l of the active ingredient used (including 10% DMSO as solvent). The plants were grown on in the climatic chamber until the test was evaluated (10=total damage to plant, 0=no damage to plant) after 9 or 13 days.

SMILES	AGSTE herbicidal action (damage score 0-10)	AMARE herbicidal action (damage score 0-10)	DIGSA herbicidal action (damage score 0-10)	POATR herbicidal action (damage score 0-10)	SETIT herbicidal action (damage score 0-10)
Cn1cc(C(F)(F)F)c(CSC2=NOC(C)(C)C2F)n1 (stereo not shown) [4.01, 3-(4-fluoro-5,5-dimethyl-4,5-dihydro-isoxazol-3-ylsulfanyl-methyl)-1-methyl-4-trifluoromethyl-1H-pyrazole]	0	8	9	0	9
Cn1cc(C(F)(F)F)c(CS(=O)(=O)C2=NOC(C)(C)C2F)n1 (stereo not shown) [4.03, 3-(4-fluoro-5,5-dimethyl-4,5-dihydro-isoxazol-3-ylsulfonylmethyl)-1-methyl-4-trifluoromethyl-1H-pyrazole]	10	8	10	10	7
CC(c1nn(C)cc1C(F)(F)F)S(=O)(=O)C1=NOC(C)(C)C1F (stereo not shown) [4.04, 3-(1-(4-fluoro-5,5-dimethyl-4,5-dihydro-isoxazol-3-ylsulfonyl)-eth-1 yl)-1-methyl-4-trifluoromethyl-1H-pyrazole]	10	9	9	8	9
Cn1nc(CS(=O)(=O)C2=NOC(C)(C)C2F)c(C(F)(F)F)c1C#N (stereo not shown) [4.09]	10	9	7	4	
COc1ncc(C[S+]([O-])C2=NOC(C)(C)C2F)c(C(F)(F)F)n1 (stereo not shown) [5.02]	10	10	10	10	
COc1ncc(CS(=O)(=O)C2=NOC(C)(C)C2F)c(C(F)(F)F)n1 (stereo not shown) [5.03]	10	10	8	10	
Cn1nc(C(F)(F)F)cc1CS(=O)(=O)C1=NOC(C)(C)C1F (stereo not shown) [6.04]	10	9	9	10	
Cn1nc(C(F)(F)F)c(Cl)c1CS(=O)(=O)C1=NOC(C)(C)C1F (stereo not shown) [6.07]	10	7	9	10	
Cn1nc(OC(F)F)cc1CS(=O)(=O)C1=NOC(C)(C)C1F (stereo not shown) [6.10]	10	7	0	9	
COc1cc(CS(=O)(=O)C2=NOC(C)(C)C2F)n(C)n1 (stereo not shown) [6.13]	10	10	9	10	
Cc1nn(C)nc1CS(=O)(=O)C1=NOC(C)(C)C1F (stereo not shown) [7.04]	10	10	10	10	9
C=CCn1nc(CS(=O)(=O)C2=NOC(C)(C)C2F)c(C(F)(F)F)n1 (stereo not shown) [7.10]	10	10	10	10	
CC1(C)ON=C(S(=O)(=O)Cc2nn(C3CCCC3)nc2C(F)(F)F)C1F (stereo not shown) [7.14]	10	8	9	8	
COCCn1nc(CS(=O)(=O)C2=NOC(C)(C)C2F)c(C(F)(F)F)n1 (stereo not shown) [7.20]	10	10	10	10	
Cn1ncc(CS(=O)(=O)C2=NOC(C)(C)C2F)n1 (stereo not shown) [7.23]	10	5	9	9	
CC(C)n1nc(CS(=O)(=O)C2=NOC(C)(C)C2F)c(C(F)(F)F)n1 (stereo not shown) [7.27]	9	1	10	0	
CCc1nn(C)nc1CS(=O)(=O)C1=NOC(C)(C)C1F (stereo not shown) [7.33]	10	10	10	10	
CCn1ncc(CS(=O)(=O)C2=NOC(C)(C)C2F)n1 (stereo not shown) [7.36]	9	8	9	10	
Cc1nn(C(C)C)nc1CS(=O)(=O)C1=NOC(C)(C)C1F (stereo not shown) [7.39]	10	8	9	8	
Cn1nc(C[S+]([O-])C2=NOC(C)(C)C2F)c(C(F)(F)F)n1 (stereo not shown) [7.43]	10	10	10	10	
Cn1nnc(Br)c1CS(=O)(=O)C1=NOC(C)(C)C1F (stereo not shown) [11.03]	10	3	9	10	
CC1(C)ON=C(S(=O)(=O)C(F)(F)c2ccccc2OC(F)(F)F)C1F (stereo not shown) [Compound No. 1.12]	10	9	9	0	8
CC1(C)ON=C(S(=O)(=O)C(Cl)c2ccccc2OC(F)(F)F)C1F (stereo not shown) [Compound No. 1.13, 3-[chloro-(2-trifluoromethoxy-phenyl)-methanesulfonyl]-4-fluoro-5,5-dimethyl-4,5-dihydro-isoxazole]	10	9	9	10	9
Cn1nc(C(F)(F)F)c(C[S+]([O-])C2=NOC(C)(C)C2Br)c1OC(F)F (stereo not shown) [Compound No. 2.05, 4-bromo-3-(5-difluoromethoxy-1-methyl-3-trifluoromethyl-1H-pyrazol-4-ylmethylsulfinyl)-5,5-dimethyl-4,5-dihydro-isoxazole]	9	2	8	0	9
